In patent US6372209B1, “Vaginal lactobacillus medicant” (Gyne Logix, Inc., priority 1997, dated 2002):
Read-outs that look alike come from different tables or passages of the source.

Assays:
[1] = system: Candida albicans ATCC 60193 (cervical isolate); assay: Agar overlay zone of inhibition of yeast growth; format: cell-based; conditions: Organism Growth Time Period 48 hours
Method: MRS agar was allowed to harden at a 5 mm slant. Lactobacillus crispatus CTV-05 was streaked across the diameter of the plate and was grown for 24, 48 or 72 hours under both anaerobic and ambient atmospheres. Control strains of Lactobacillus jensenii CTV-01, Lactobacillus crispatus CTV-02, Lactobacillus crispatus CTV-03, and Lactobacillus crispatus CTV-04 were grown in the same way. The plates were overlayed with YM agar with 10 mM CNNaS (sodium thiocyanate, previously reported to be an inhibitor of yeast growth) or without CNNaS. The agar overlays were inoculated with one of two strains of Candida albicans ATCC 60193 (cervical isolate) or Candida albicans ATCC 14053 (human blood isolate). Zones of inhibition were measured. […] Therefore, Lactobacillus crispatus CTV-05 inhibits yeast growth in vitro.

[2] = system: women with recurrent bacterial vaginosis; conditions: for Percentage Women Colonized with H2O2-producing Lactobacilli / Women Colonized with H2O2-producing Lactobacilli, number: n = 15
Method: In this study, a group of women with recurrent bacterial vaginosis (BV) was treated with 2% Clindamycin cream, once daily for three days, followed by Lactobacillus suppositories containing the Lactobacillus crispatus CTV-05 strain twice daily for three days. A group of women from the same clinic with recurrent bacterial vaginosis treated with Clindamycin cream alone were included for comparison. […] The patients were evaluated for vaginal presence of H2O2-producing Lactobacilli, and the absence of bacterial vaginosis infection.

## Lactobacillus crispatus CTV-02 [reference compound]
[1]
  Zone of Inhibition (in millimeters): 3 to 0 mm

## Lactobacillus crispatus CTV-04 [reference compound]
[1]
  Zone of Inhibition (in millimeters): 5 to 2 mm

## CCC[C@@H]1C[C@@H](C(=O)N[C@@H]([C@H]2O[C@H](SC)[C@H](O)[C@@H](O)[C@H]2O)[C@H](C)Cl)N(C)C1 [Clindamycin]
[2]; Enrollment
  Percentage Women Colonized with H2O2-producing Lactobacilli: 33%
  Women Colonized with H2O2-producing Lactobacilli, number: 5
[2]; One month post treatment
  Percentage Women Free of Bacterial Vaginosis: 53%
  Percentage Women Colonized with H2O2-producing Lactobacilli: 40%
  Women Colonized with H2O2-producing Lactobacilli, number: 6
[2]; One week post treatment
  Percentage Women Free of Bacterial Vaginosis: 87%
  Percentage Women Colonized with H2O2-producing Lactobacilli: 7%
  Women Colonized with H2O2-producing Lactobacilli, number: 1
[2]; Three months post treatment
  Percentage Women Free of Bacterial Vaginosis: 26%
  Percentage Women Colonized with H2O2-producing Lactobacilli: 33%
  Women Colonized with H2O2-producing Lactobacilli, number: 5

## Lactobacillus crispatus CTV-03 [reference compound]
[1]
  Zone of Inhibition (in millimeters): slight inhibition

## Lactobacillus jensenii CTV-01 [reference compound]
[1]
  Zone of Inhibition (in millimeters): 1 to 0 mm
